# Results as given in paper PMC7269146, “Jingzhaotoxin-X, a gating modifier of Kv4.2 and Kv4.3 potassium channels purified from the venom of the Chinese tarantula Chilobrachys jingzhao” (The Journal of Venomous Animals and Toxins Including …, 2020).
# Where a SMILES comes first, the peptide text is derived from it. Bridges are numbered along the chain shown (N, C = ends).
# Biological target: T1, Kv4.3 (Rattus norvegicus, UniProt Q62897)
# T1 construct: expressed in transfected cells; host or cells: HEK293t
# T1 sequence (Q62897 1-655): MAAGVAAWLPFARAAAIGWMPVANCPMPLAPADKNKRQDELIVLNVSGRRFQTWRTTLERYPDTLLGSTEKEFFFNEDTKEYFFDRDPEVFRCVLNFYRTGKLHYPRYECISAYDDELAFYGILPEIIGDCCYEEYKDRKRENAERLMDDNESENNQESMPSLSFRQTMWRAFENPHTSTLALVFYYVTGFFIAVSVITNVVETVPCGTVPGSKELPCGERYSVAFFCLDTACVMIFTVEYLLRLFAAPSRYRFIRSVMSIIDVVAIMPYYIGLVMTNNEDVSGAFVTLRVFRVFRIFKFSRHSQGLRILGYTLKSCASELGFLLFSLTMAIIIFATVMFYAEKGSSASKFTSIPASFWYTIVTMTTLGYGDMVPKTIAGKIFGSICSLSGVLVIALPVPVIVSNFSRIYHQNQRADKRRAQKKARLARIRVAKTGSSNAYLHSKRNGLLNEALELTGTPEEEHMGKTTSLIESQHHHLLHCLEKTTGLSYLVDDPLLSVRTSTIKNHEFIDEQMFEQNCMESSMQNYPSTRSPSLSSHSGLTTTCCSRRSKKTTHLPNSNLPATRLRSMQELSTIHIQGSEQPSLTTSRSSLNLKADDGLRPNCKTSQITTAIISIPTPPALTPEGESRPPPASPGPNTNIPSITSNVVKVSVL
# Assay: current-voltage relationship / activation, Kv4.3
# Format: cell-based
# Description: Rat cDNA genes encoding Kv4.2 (Accession: NM_031730.2) and Kv4.3 (Accession: AB003587.1) were subcloned to vector pcDNA3.1. In addition, human cDNA genes encoding Nav1.7 (Accession: DQ857292.1) and Nav1.5 (Accession: AB158469.2) were subcloned to vectors pcDNA3.1-mod and pcDNA3.1, separately. Then, Kv4.2, Kv4.3, Nav1.5 and Nav1.7 constructs were transiently transfected into the human embryonic kidney 293t (HEK293t) cells using lipofectamine 2000 (Invitrogen, USA) in accordance with manufacturer protocols. Thereafter, HEK293 cells were inoculated within Dulbecco’s modified Eagle’s medium (DMEM) containing 10% fetal bovine serum (FBS) at 5% CO2 and 37°C. The Kv4.3 channel and the Kv4.2 counterpart were then transfected in the absence of β subunit. Subsequently, cells were incubated with a DNA-lipofectamine mixture (one reporter plasmid for green fluorescence protein and channel constructs) for 4-6 h, and were washed with the fresh medium.
# An EPC-10 patch-clamp amplifier (HEKA, Germany) was employed to record the potassium currents at the configuration of whole-cell patch-clamp under an ambient temperature of 22-25°C. The resistance was 2.0-3.0 MΩ when the recording pipette contained a full volume of internal solution (supplemented with 140 mM KCl, 10 mM HEPES, 2.5 mM MgCl2, 5 mM ATP and 11 mM EGTA). KOH was utilized to adjust the pH to 7.2, while sucrose was employed to adjust the osmolarity to 310 mOsm/L. The culture medium was replaced with an external solution containing 150 mM NaCl, 2.5 mM CaCl2, 10 mM HEPES, 2 mM MgCl2, 5 mM KCl, and 10 mM D-glucose. Similarly, sucrose and NaOH were applied to adjust the osmolarity to 330 mOsm/L and pH to 7.4. […] The series resistance was maintained at about 5 MΩ, with 65-70% compensation. Finally, the leakage currents and linear capacitance were subtracted digitally according to the P/4 protocol.
# The voltage-dependent inhibition of Kv4.2 and Kv4.3 channels by JZTX-X was determined by the depolarizing pulses to potentials in 10 mV steps from −80 to +60 mV at an interval of 10 s and the holding potential of -80 mV. […] For quantifying the voltage-depending inhibition of Kv4.2 and Kv4.3 channels, the relative current was drawn based on the membrane potential. Under control conditions, those threshold potentials to initially activate Kv4.2 and Kv4.3 currents were around -40 mV. The JZTX-X treatment at 500 nM inhibited the Kv4.2 and Kv4.3 currents, and then the I-V relation shifted to the right by about 30 mV (from -39.5 ± 1.9 mV to -11.3 ± 1.2 mV ) and 40 mV (from -39.8 ± 1.5 mV to -2.5 ± 0.9 mV ), separately (Fig. 5C and D). Additionally, the channel conductance also shifted rightward by around 30 mV (data not shown).
# Figure 5. […] All data were expressed as mean ± S.E.M (n = 5-7 cells).
smiles,measurement,setting,value
"CC(C)C[C@@H]1NC(=O)[C@H](CCCCN)NC(=O)[C@H](Cc2ccc(O)cc2)NC(=O)[C@@H]2CSSC[C@@H]3NC(=O)[C@H](Cc4ccc(O)cc4)NC(=O)[C@H](Cc4ccccc4)NC(=O)CNC(=O)[C@H](C)NC(=O)[C@H](CSSC[C@H](NC(=O)[C@@H](N)CC(C)C)C(=O)N[C@@H](CO)C(=O)N[C@@H](CCCNC(=N)N)C(=O)N[C@@H](CCC(=O)O)C(=O)NCC(=O)N[C@@H](CCC(=O)O)C(=O)N[C@@H](Cc4ccccc4)C(=O)N2)NC(=O)[C@H](CSSC[C@@H](C(=O)N[C@@H](Cc2ccc(O)cc2)C(=O)N[C@@H](CCCNC(=N)N)C(=O)N[C@@H](CC(N)=O)C(=O)O)NC(=O)[C@H](Cc2c[nH]cn2)NC(=O)[C@H](CC(C)C)NC(=O)[C@H](C(C)C)NC(=O)[C@H](Cc2ccccc2)NC(=O)[C@H](C)NC(=O)[C@H](CCCCN)NC3=O)NC(=O)[C@H](CCCCN)NC(=O)[C@H](CCCNC(=N)N)NC1=O [JZTX-X, Jingzhaotoxin-X] (H-LCSREGEFCYKLRKCCAGFYCKAFVLHCYRN-OH; disulfide 2-16, 9-21, 15-28; N-terminus assumed)","I-V relation potential after toxin, Kv4.3","500 nM, control -39.8 ± 1.5 mV, holding -80 mV, n = 5-7 cells",-2.5 ± 0.9 mV
same,"rightward shift of I-V relation, Kv4.3","500 nM, holding -80 mV",~40 mV
same,"rightward shift of channel conductance, Kv4.3","data not shown, channel not named separately",about 30 mV
same,voltage dependence of Kv4.3 inhibition,"test potentials -10 to +60 mV, 100 nM and 500 nM",dependent on voltage
